Experimental data published in ChEMBL document CHEMBL1201862, “PubChem BioAssay data set” (2004).
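Method: 48-hour compound exposure of cells in 96-well plates, five concentrations, linear interpolation of endpoints. At the GI50, growth is halved.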 Active and inactive are the calls of the source. No stated cut-off is given here; in the data, active = GI50 up to about 1.1 µM and inactive = higher.

Tests used:
Experiment in all cases: NCI anticancer screen, dose series, 48 h
[1] = system: CAKI-1
[2] = system: NCI/ADR-RES
[3] = system: UO-31
[4] = system: CCRF-CEM
[5] = system: UACC-62
[6] = system: EKVX
[7] = system: OVCAR-3
[8] = system: SK-MEL-2
[9] = system: HL-60
[10] = system: MCF7
[11] = system: MDA-MB-435
[12] = system: HCT-15
[13] = system: Hs-578T
[14] = system: SW-620
[15] = system: NCI-H23
[16] = system: RXF 393
[17] = system: K562
[18] = system: HCC 2998
[19] = system: COLO 205
[20] = system: ACHN

| Structure (SMILES) | GI50 [1] | GI50 [2] | GI50 [3] | GI50 [4] | GI50 [5] | GI50 [6] | GI50 [7] | GI50 [8] | GI50 [9] | GI50 [10] | GI50 [11] | GI50 [12] [µM] | GI50 [13] | GI50 [14] | GI50 [15] | GI50 [16] | GI50 [17] | GI50 [18] | GI50 [19] | GI50 [20] |
| --- | --- | --- | --- | --- | --- | --- | --- | --- | --- | --- | --- | --- | --- | --- | --- | --- | --- | --- | --- | --- |
| CN(C)CCCOC(=O)C(c1ccccc1)C1(O)CCSCC1 (stereo not given) | 32.7 µM (inactive) | 10.2 µM (inactive) | > 100 µM (inactive) | > 100 µM (inactive) | > 100 µM (inactive) | > 100 µM (inactive) | > 100 µM (inactive) | > 100 µM (inactive) | > 100 µM (inactive) | > 100 µM (inactive) | > 100 µM (inactive) | > 100 | > 100 µM (inactive) | 32.3 µM (inactive) | > 100 µM (inactive) | > 100 µM (inactive) | > 100 µM (inactive) | > 100 µM (inactive) | > 100 µM (inactive) | > 100 µM (inactive) |
| COc1ccc2c(c1)C(N)=C(c1ccccc1OC)C2=O | > 100 µM (inactive) | > 100 µM (inactive) | 89.7 µM (inactive) | > 100 µM (inactive) | 77.8 µM (inactive) | > 100 µM (inactive) | > 100 µM (inactive) | > 100 µM (inactive) | 23.5 µM (inactive) | > 100 µM (inactive) | 53.6 µM (inactive) | > 100 | > 100 µM (inactive) | > 100 µM (inactive) | > 100 µM (inactive) | 25.1 µM (inactive) | > 100 µM (inactive) | > 100 µM (inactive) | > 100 µM (inactive) | > 100 µM (inactive) |
| [N-]=[N+]=NC1C(O)C(CO)OC1n1ccc(=O)[nH]c1=O (stereo not given) | > 875 µM (inactive) | > 875 µM (inactive) | > 875 µM (inactive) | > 875 µM (inactive) | > 875 µM (inactive) | 344 µM (inactive) | > 875 µM (inactive) | > 875 µM (inactive) | 863 µM (inactive) | > 875 µM (inactive) | > 875 µM (inactive) | > 875 | > 875 µM (inactive) | > 875 µM (inactive) | > 875 µM (inactive) | 0.0875 µM (active) | > 875 µM (inactive) | > 875 µM (inactive) | > 875 µM (inactive) | > 875 µM (inactive) |
| COc1cc(C2SC(=N)Nc3c2c(C)nn3C(=O)c2ccccc2O)ccc1O (stereo not given) | > 2.42 µM (inactive) | > 2.38 µM (inactive) | 9.31 µM (inactive) | 2.01 µM (inactive) | 1.15 µM (inactive) | > 2.63 µM (inactive) | > 2.93 µM (inactive) | > 2.86 µM (inactive) | > 2.32 µM (inactive) | > 2.01 µM (inactive) | 1.54 µM (inactive) | > 2.31 | 0.461 µM (active) | > 4.71 µM (inactive) | > 2.3 µM (inactive) | 1.52 µM (inactive) | 1.46 µM (inactive) | > 6.62 µM (inactive) | > 5.55 µM (inactive) | 1.21 µM (inactive) |
| O=C1/C(=C/c2ccc(Cl)c(Cl)c2)CNC/C1=C\c1ccc(Cl)c(Cl)c1 | 4.09 µM (inactive) | 3.66 µM (inactive) | 17.5 µM (inactive) | 2.29 µM (inactive) | 14 µM (inactive) | 6.17 µM (inactive) | 3.89 µM (inactive) | 23.3 µM (inactive) | 8.39 µM (inactive) | 7.64 µM (inactive) | 20.9 µM (inactive) | 2.94 | 3.21 µM (inactive) | 1.38 µM (inactive) | 8.51 µM (inactive) | 14 µM (inactive) | 3.1 µM (inactive) | 9.66 µM (inactive) | 5.27 µM (inactive) | 18.1 µM (inactive) |
| O=[N+]([O-])c1cccc(/N=N/c2c(O)c(S(=O)(=O)O)cc3cc(S(=O)(=O)O)ccc23)c1 | > 100 µM (inactive) | > 100 µM (inactive) | > 100 µM (inactive) | > 100 µM (inactive) | > 100 µM (inactive) | > 100 µM (inactive) | > 100 µM (inactive) | > 100 µM (inactive) | > 100 µM (inactive) | 67.8 µM (inactive) | > 100 µM (inactive) | > 100 | > 100 µM (inactive) | > 100 µM (inactive) | > 100 µM (inactive) | > 100 µM (inactive) | > 100 µM (inactive) | > 100 µM (inactive) | > 100 µM (inactive) | > 100 µM (inactive) |
| COc1cc2c(c(OC)c1OC)-c1ccc(OC)c(=O)cc1C(NC(=O)COc1ccccc1)CC2 (stereo not given) | < 0.01 µM (active) | 0.0546 µM (active) | 0.0402 µM (active) | 0.0162 µM (active) | < 0.01 µM (active) | 0.731 µM (active) | < 0.01 µM (active) | < 0.01 µM (active) | 0.0372 µM (active) | < 0.01 µM (active) | < 0.01 µM (active) | 0.0104 | < 0.01 µM (active) | < 0.01 µM (active) | < 0.01 µM (active) | 0.0184 µM (active) | < 0.0208 µM (active) | < 0.01 µM (active) | < 0.01 µM (active) | 0.0101 µM (active) |
| Cc1ccc(C)n1-c1ccccc1C1C=Cn2c3c1c(=O)c(OC(C)C)c(OC(C)C)c-3n[nH]c2=O (stereo not given) | 31.8 µM (inactive) | 32.6 µM (inactive) | 64.3 µM (inactive) | 13.3 µM (inactive) | 39.4 µM (inactive) | 28.4 µM (inactive) | 35.5 µM (inactive) | 20 µM (inactive) | 5.45 µM (inactive) | 22.2 µM (inactive) | 21.8 µM (inactive) | 21.7 | 35.4 µM (inactive) | 18.3 µM (inactive) | 53.8 µM (inactive) | 23 µM (inactive) | 12.2 µM (inactive) | 23.6 µM (inactive) | 13.1 µM (inactive) | 45.8 µM (inactive) |
| CNC(=O)CNC(=O)N(C[C@@H]1CCCN1C(=O)[C@H](CC(C)C)NC(=O)OC(C)(C)C)C(C)C | > 100 µM (inactive) | > 100 µM (inactive) | > 100 µM (inactive) | > 100 µM (inactive) | > 100 µM (inactive) | > 100 µM (inactive) | > 100 µM (inactive) | > 100 µM (inactive) | > 100 µM (inactive) | > 100 µM (inactive) | > 100 µM (inactive) | > 100 | > 100 µM (inactive) | > 100 µM (inactive) | > 100 µM (inactive) | > 100 µM (inactive) | > 100 µM (inactive) | > 100 µM (inactive) | > 100 µM (inactive) | > 100 µM (inactive) |
| CC12CCC([C@H](C(O)C3CCCCC3)C1=O)C2(C)C (stereo not given in full) | > 100 µM (inactive) | > 100 µM (inactive) | > 100 µM (inactive) | 31.6 µM (inactive) | > 100 µM (inactive) | > 100 µM (inactive) | > 100 µM (inactive) | > 100 µM (inactive) | 13.9 µM (inactive) | > 100 µM (inactive) | > 100 µM (inactive) | > 100 | > 100 µM (inactive) | > 100 µM (inactive) | > 100 µM (inactive) | 75.2 µM (inactive) | 63 µM (inactive) | > 100 µM (inactive) | > 100 µM (inactive) | > 100 µM (inactive) |
| c1cc(-c2ccc(-c3ccc(C4=NC5CCCCC5N4)cc3)o2)ccc1C1=NC2CCCCC2N1 (stereo not given) | 5.92 µM (inactive) | 28.4 µM (inactive) | 2.99 µM (inactive) | 1.79 µM (inactive) | 1.71 µM (inactive) | 1.69 µM (inactive) | 1.85 µM (inactive) | 1.82 µM (inactive) | 2.31 µM (inactive) | 1.21 µM (inactive) | 1.86 µM (inactive) | 5.19 | 1.55 µM (inactive) | 2.56 µM (inactive) | 1.58 µM (inactive) | 1.95 µM (inactive) | 1.42 µM (inactive) | 1.3 µM (inactive) | 1.5 µM (inactive) | 2.36 µM (inactive) |
| COc1ccc(Cc2cc(OC)c(OC)c(OC)c2)cc1O | > 24.7 µM (inactive) | < 0.01 µM (active) | 1.03 µM (active) | 0.0177 µM (active) | 0.457 µM (active) | 24.7 µM (inactive) | 0.0365 µM (active) | 0.0702 µM (active) | 0.0235 µM (active) | 0.0244 µM (active) | < 0.01 µM (active) | 0.019 | 0.0137 µM (active) | < 0.01 µM (active) | 0.101 µM (active) | 0.181 µM (active) | 0.0161 µM (active) | 2.41 µM (inactive) | > 40.2 µM (inactive) | 0.167 µM (active) |
| OCC1=C[C@@](COCc2ccccc2)(OCc2ccccc2)[C@@H](OCc2ccccc2)[C@@H]1OCc1ccccc1 | 14.5 µM (inactive) | 3.61 µM (inactive) | 17 µM (inactive) | 2.81 µM (inactive) | 17.3 µM (inactive) | 11.7 µM (inactive) | 11.7 µM (inactive) | 12.7 µM (inactive) | 23.4 µM (inactive) | 3.76 µM (inactive) | 6.64 µM (inactive) | 17.1 | 21.9 µM (inactive) | 18.5 µM (inactive) | 16.6 µM (inactive) | 3.64 µM (inactive) | 10.6 µM (inactive) | 13.7 µM (inactive) | 11.6 µM (inactive) | 22.9 µM (inactive) |
| Nc1ncnc2nn(C3OC(CO)C(O)C3O)nc12 (stereo not given) | 8.55 µM (inactive) | 9.73 µM (inactive) | 6.44 µM (inactive) | 21.1 µM (inactive) | 25.4 µM (inactive) | 41.3 µM (inactive) | 7.57 µM (inactive) | 2.99 µM (inactive) | 2.43 µM (inactive) | 8.28 µM (inactive) | 9.1 µM (inactive) | 5.62 | 31.5 µM (inactive) | 6.52 µM (inactive) | 20.3 µM (inactive) | 2 µM (inactive) | 5.46 µM (inactive) | 7.6 µM (inactive) | 5.06 µM (inactive) | 3.67 µM (inactive) |
